Reference: ChEMBL document CHEMBL1201862, “PubChem BioAssay data set” (2004)
Calls of active or inactive are those of the source.

What was measured:
[1] = target: DNA dC->dU-editing enzyme APOBEC-3G (Homo sapiens, UniProt Q9HC16); test: Dose Response confirmation of small molecule APOBEC3G DNA Deaminase Inhibitors via a fluorescence-based single-stranded DNA deaminase assay. [Related pubchem assays (depositor defined):AID493012, AID493028]; format: functional
[2] = target: T1, Replicative DNA helicase DnaB (Mycobacterium tuberculosis, UniProt P9WMR3); test: DnaB intein splicing inhibitors, dose response, biochemical, cell-free fluorescence (AID 449749); format: functional
T1 sequence (P9WMR3 whole entry): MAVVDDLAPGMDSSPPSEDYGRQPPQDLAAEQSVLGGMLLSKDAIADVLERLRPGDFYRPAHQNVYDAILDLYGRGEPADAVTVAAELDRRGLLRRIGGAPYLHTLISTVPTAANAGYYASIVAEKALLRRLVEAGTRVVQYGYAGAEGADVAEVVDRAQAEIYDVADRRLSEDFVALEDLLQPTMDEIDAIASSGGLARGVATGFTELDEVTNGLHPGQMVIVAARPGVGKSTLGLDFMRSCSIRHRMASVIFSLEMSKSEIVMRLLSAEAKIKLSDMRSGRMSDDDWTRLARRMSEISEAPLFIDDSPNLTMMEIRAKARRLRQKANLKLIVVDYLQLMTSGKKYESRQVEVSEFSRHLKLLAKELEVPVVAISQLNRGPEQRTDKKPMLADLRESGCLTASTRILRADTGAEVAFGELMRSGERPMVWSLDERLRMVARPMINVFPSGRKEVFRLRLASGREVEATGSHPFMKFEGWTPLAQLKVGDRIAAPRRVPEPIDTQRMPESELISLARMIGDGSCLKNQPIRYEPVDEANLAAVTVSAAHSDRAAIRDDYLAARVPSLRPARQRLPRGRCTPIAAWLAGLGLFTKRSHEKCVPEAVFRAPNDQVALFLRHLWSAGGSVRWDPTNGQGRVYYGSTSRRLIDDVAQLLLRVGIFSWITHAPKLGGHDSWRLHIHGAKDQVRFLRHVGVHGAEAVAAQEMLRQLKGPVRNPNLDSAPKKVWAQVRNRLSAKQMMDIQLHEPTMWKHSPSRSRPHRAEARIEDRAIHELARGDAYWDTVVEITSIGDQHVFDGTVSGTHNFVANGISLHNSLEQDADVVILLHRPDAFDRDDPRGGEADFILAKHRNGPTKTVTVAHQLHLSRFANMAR

[3] = NIH3T3 cell viability loss – ATP luminescence, mouse fibroblasts, counter-screen, dose response (AID 2010); format: functional, cell-based;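 further: cells exposed to compound for about 90 hours before reading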
[4] = target: T2, Zinc finger protein mex-5 (Caenorhabditis elegans, UniProt Q9XUB2); test: potency of MEX-5 RNA-binding blockers – biochemical, C. elegans, fluorescence polarization, dose response (AID 1960)
T2 sequence (Q9XUB2 whole entry): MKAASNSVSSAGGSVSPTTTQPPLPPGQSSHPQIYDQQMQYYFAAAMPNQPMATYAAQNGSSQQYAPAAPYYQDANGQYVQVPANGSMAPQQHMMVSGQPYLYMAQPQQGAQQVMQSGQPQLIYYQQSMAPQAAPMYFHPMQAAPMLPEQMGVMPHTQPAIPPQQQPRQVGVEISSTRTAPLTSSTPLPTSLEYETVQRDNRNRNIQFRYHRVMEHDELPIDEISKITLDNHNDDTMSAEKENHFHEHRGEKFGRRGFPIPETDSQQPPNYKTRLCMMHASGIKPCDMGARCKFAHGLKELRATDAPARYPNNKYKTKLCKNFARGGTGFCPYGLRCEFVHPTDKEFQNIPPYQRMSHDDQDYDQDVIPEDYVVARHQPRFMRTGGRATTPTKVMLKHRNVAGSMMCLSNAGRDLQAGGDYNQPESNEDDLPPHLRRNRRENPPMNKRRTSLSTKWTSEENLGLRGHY

[5] = target: RNA-editing ligase 1, mitochondrial (Trypanosoma brucei brucei, UniProt P86926); test: inhibition of trypanosome RNA editing ligase – biochemical, fluorescence, Trypanosoma brucei, dose response (AID 1117295); format: functional
[6] = target: T3, Histone-lysine N-methyltransferase NSD2 (Homo sapiens, UniProt O96028); format: biochemical
T3 sequence (O96028 whole entry): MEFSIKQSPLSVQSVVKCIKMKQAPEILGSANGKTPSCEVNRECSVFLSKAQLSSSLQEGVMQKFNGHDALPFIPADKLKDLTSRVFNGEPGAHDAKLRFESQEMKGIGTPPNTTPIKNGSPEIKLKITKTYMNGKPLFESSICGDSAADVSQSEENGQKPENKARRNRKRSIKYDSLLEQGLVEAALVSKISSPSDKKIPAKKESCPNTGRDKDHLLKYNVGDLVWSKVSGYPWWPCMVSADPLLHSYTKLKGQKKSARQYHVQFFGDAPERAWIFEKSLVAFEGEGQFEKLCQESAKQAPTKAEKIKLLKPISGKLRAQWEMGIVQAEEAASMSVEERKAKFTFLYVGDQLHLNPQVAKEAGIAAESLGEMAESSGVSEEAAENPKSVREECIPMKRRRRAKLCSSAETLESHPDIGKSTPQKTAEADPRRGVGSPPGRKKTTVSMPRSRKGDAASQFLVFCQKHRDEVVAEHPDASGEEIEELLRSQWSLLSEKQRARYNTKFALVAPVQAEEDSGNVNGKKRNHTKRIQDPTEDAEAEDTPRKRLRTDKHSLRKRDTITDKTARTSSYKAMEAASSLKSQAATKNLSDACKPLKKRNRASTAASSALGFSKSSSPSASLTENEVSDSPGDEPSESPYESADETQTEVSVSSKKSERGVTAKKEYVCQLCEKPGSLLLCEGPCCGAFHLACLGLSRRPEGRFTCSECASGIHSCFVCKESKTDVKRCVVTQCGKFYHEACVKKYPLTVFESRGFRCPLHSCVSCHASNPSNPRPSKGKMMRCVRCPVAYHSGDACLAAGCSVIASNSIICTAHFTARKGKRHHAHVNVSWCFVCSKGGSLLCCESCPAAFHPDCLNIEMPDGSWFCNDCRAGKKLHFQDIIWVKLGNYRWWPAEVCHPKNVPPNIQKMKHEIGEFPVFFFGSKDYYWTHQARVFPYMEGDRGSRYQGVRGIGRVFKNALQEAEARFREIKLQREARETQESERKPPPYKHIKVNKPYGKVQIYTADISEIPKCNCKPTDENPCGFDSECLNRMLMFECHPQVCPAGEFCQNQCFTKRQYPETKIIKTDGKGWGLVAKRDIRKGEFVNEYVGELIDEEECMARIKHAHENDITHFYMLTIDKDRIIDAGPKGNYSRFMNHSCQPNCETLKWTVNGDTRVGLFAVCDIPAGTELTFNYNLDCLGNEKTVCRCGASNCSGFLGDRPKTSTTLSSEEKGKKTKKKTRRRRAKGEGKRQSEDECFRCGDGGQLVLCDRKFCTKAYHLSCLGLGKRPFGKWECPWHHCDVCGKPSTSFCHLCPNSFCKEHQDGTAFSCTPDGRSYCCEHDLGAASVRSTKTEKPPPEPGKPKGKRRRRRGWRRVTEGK

[7] = target: Serine/threonine-protein kinase PAK 1 (Homo sapiens, UniProt Q13153); format: functional
Serine/threonine-protein kinase PAK 1, sequence (Q13153 whole entry): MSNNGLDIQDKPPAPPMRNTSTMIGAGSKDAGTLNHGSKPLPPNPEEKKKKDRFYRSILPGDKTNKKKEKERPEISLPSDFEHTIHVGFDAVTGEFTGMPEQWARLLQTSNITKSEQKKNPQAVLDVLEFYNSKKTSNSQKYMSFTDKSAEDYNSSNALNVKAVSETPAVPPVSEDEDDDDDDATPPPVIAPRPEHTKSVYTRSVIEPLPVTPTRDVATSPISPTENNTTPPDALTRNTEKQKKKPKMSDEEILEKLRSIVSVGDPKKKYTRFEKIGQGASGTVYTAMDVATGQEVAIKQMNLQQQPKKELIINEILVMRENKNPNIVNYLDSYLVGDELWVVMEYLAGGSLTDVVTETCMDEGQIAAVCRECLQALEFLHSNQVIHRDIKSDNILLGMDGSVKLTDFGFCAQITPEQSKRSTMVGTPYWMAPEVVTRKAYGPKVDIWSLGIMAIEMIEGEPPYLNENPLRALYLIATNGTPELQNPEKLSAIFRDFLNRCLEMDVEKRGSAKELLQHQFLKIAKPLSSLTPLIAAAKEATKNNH

DNA dC->dU-editing enzyme APOBEC-3G, sequence (Q9HC16 whole entry): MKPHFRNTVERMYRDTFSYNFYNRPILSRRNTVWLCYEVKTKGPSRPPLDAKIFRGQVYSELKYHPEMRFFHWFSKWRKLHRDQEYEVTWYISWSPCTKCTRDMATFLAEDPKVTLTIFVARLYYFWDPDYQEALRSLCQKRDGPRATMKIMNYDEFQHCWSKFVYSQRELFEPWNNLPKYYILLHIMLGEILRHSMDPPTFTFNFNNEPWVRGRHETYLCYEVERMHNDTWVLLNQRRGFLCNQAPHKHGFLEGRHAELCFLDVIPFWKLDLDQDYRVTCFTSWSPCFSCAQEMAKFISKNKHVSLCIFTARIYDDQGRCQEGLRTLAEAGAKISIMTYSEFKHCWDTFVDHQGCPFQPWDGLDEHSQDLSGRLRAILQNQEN
RNA-editing ligase 1, mitochondrial, sequence (P86926 whole entry): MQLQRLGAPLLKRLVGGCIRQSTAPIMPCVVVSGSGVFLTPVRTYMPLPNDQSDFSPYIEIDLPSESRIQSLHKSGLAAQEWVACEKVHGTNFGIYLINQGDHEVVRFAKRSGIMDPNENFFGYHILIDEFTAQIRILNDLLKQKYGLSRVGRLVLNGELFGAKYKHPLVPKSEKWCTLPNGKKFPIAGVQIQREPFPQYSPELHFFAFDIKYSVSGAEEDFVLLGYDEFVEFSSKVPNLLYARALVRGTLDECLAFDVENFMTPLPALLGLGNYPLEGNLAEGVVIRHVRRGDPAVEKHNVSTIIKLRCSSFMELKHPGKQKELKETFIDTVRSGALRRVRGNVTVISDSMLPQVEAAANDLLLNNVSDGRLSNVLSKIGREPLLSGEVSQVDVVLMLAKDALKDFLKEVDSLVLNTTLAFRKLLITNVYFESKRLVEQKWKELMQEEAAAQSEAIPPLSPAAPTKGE

SMILES | IC50 [1] | AC50 [2] | EC50 [3] | EC50 [4] | AC50 [6] | also measured
CC(=O)N(C1=C(Cl)C(=O)c2ccccc2C1=O)C1CCCCC1 | 7.68 µM (active) | 2.98 µM (active) | 3.26 µM (active) | 8.18 µM (active) | – | –
Oc1ccc(-c2cn3c(n2)SCC3)cc1O | 12.6 µM (active) | – | – | 1.77 µM (active) | 2.95 µM (active) | IC50 [5]: > 96.6 µM (inactive)
O=C1Nc2ccc3ncsc3c2C1=CNc1ccc(S(=O)(=O)Nc2ccccn2)cc1 | – | – | – | – | – | Ki [7]: 2 µM (active)
Cc1ccc(NC2=C/C(=N\S(=O)(=O)c3cccs3)c3ccccc3C2=O)c(C)c1 | – | 0.339 µM (active) | < 6 µM (inconclusive) | – | – | –
COc1ccc(/C=N/NC(=O)c2nn(-c3ccccc3)c(=O)c3c(N)scc23)cc1 | – | – | – | – | > 20 µM (inactive) | –
